Tests used:
[1] = test system: MDA-MB-231 tumor cells; assay: Extravasation efficiency in chick chorioallantoic membrane (CAM); format: in vivo, chicken embryos; details: 24 hrs after injection into CAM vein; cells pre-treated with HA for 1 hour on ice
Experimental: Fertilized chicken eggs were incubated in a rotary incubator at 37° C. with 90% humidity for 4 days before being removed from the shell and placed in covered dishes and incubated at 37° C. with 90% humidity until usage (PMID:20671724). On day 13 of embryonic development, 7.5×10^4 tumor cells in 100 μL PBS were intravenously injected into a vein within the chorioallantoic membrane (CAM, N=5 each group) (PMID-20671724). Prior to injection, cancer cells were pre-treated with HA (100 mg/ml) or vehicle (PBS) for 1 hour on ice. […] At least 200 cells for each ROI at T=0 was analyzed and enumerated.
Extravasated tumor cells can be observed in interstitial spaces 24-72 hrs after their injection into CAM veins but by this time cell bound F-HA is not detectable since it has been metabolized (FIG. 22B). To determine if F-HA promotes extravasation of dt-Tomato expressing tumor cells, we therefore simply measured the number of extravasated tumor cells at varying times after injection with or without unlabeled HA, used at the same concentration and polydispersity as F-HA, with intravial confocal imaging (FIG. 22C-D). […] We next determined if exposing tumor cells to HA increased extravasation, choosing 24 hrs after injection rather than 72 hrs shown in FIG. 22C to reduce the contribution of proliferation to appearance of extravascular tumor colonies. […]

[2] = Targeting of HA-based probes in response-to-injury model; format: in vivo, rat; details: radiolabel, magnetic resonance and fluorescence labels
Description: (§1) We evaluated the targeting ability of HA-based probes in several modalities (radiolabel, magnetic resonance, and fluorescence) to areas of microenvironment remodeling that are associated with both tissue injury and tumor formation. We chose well-characterized rat balloon injured carotid arteries as a response to injury model, and xenografts of MDA-MB-231 cells as a tumor model.

[3] = test system: xenografts of MDA-MB-231 cells; assay: Targeting of HA-based probes in tumor model; format: in vivo; details: radiolabel, magnetic resonance and fluorescence labels
Description: as §1

[4] = test system: MDA-MB-231; assay: Inhibition of HA probe uptake, confocal imaging; format: cell-based, human; details: excess HA added either during or prior to addition of HA probe
[5] = test system: MDA-MB-231; assay: Fluorescent HA probe binding by flow cytometry (FACS); format: cell-based, human
Description: (§2) Simultaneous profiling of cell surface markers and HA binding/uptake required the establishment of a sensitive multiplexed detection method, which could detect both the cell surface receptors and the binding/uptake of ligand (HA). We utilized fluorescence-activated cell sorting (FACS) and established protocols for minimum decoration of cells by antibodies and HA, maximum detection sensitivity at the cell surface, and retained viability/functionality during and after sort. Fluorescent HA probes and antibodies were synthesized and characterized in a panel of human breast cancer cell lines (MDA-MB-231, SUM1315MO2, HS-578T, MDA-MB-468, HCC-1569, BT-20, MCF-10A, S1, T4-2, MCF-7, BT474, SK-BR3, AU565, MDA-MB-361, D920, SK3 [RHAMM−/− and CD44−/− were used as negative controls], and 10T½ [RHAMM+/+ were used as positive controls]). In brief, soluble HA (280,000 dalton) was linked to hydrazide-activated fluorochromes and monoclonal antibodies were directly conjugated to tetrafluorophenyl (TFP) ester activated fluorochromes (Alexa Fluor 647 and sometimes to Alexa Fluor 488) and reacted with the live cells under sterile dark conditions. Four fluorochromes were selected in a manner that provided minimal fluorescent spectral overlaps and maximal brightness for low-expressing markers, which allowed sensitive monitoring of subtle changes in marker expression and HA binding capacity in live cells. Near infrared fluorescence range was selected for HA to extend signal stability during multiple stages of characterizations (Alexa Fluor 647). […] As well, these appeared to non-specifically interact with each other and with cells, which would require extensive characterization and optimization. Therefore, we continued our study using minimally-decorated HA and antibodies by fluorochromes, as described below, and successfully profiled multiple cell surface markers.
(§3) (1) Grow cells to 50% confluence on culture flask; (2) Rinse in Ca^2+-free Hank's Buffered Saline Solution (HBSS/20 mM HEPES, pH 7.3); (3) Harvest cells with non-enzymatic HBSS-based cell dissociation solution; (4) Resuspend in cold and sterile PBS solution that contains Antibiotic, HEPES pH 7.4, Insulin, and Transferrin (PBS/additive solution); (5) Centrifuge and eliminate supernatant; (6) Wash in cold PBS/additive solution; (7) Count cells using cell counter instrument and measure viability; (8) Treat cells (in suspension) with Alexa Flour 647-HA; (9) Incubate for 45 min on ice, in dark.
(§4) For single-color HA-binding flow cytometry: (a) wash the cells, eliminate supernatant and adjust concentration of solution appropriate for flow cytometry and (b) perform live cell flow cytometry immediately.
(§5) Cells were grown to 50%-70% confluence in 75 cm^2 culture flasks in DMEM supplemented with 10% FCS at 37° C. and 5% CO2, then subcultured every 3-4 days. For HA uptake experiments, cells were grown to 50% subconfluence, which was achieved 12-20 hrs after subculture, in order to maximize RHAMM surface display. Cells were rinsed in Ca++-free Hanks Buffered Saline (HBSS) solution/20 mM HEPES, pH 7.3, and removed from the substratum by incubating in non-enzymatic HBSS-based solution (Sigma-Aldrich[H-6648]) for 2-3 min, which preserves cell surface epitopes (Veiseh M, et al, Biomacromolecules 2012, Hamilton S. R. et al, JBC, 2007). Viablity of cells was assessed using a Vi_CELL cell analyzer.
(§6) 0.2 ml of soluble HA (1% HA, MWav=280,000 dalton) was activated in 1 ml of a (0.0028 g/1 ml MES) N-(3-Dimethylaminopropyl)-N′-ethylcarbodiimide hydrochloride (EDAC) solution (Sigma-Aldrich) in 4-morpholineethanesulfonic acid (MES) (20 mM, pH 4.5, Sigma-Aldrich), and the resulting solution was reacted with 0.3 ml of A^647-HA hydrazide, tris(triethylammonium) salt (Invitrogen, 1 mg/ml in H2O) in the dark at RT. The solution was covered in aluminum foil and placed on a rocker for 12 hrs at room temperature. […]

[6] = test system: MCF-7; assay: as above; format: cell-based, human; details: Table 1, HA probe binding/uptake
Description: as §2, §3, §4, §5, §6

[7] = test system: SKBR-3; assay: as above; format: cell-based, human
Description: as §2, §3, §4, §5, §6

[8] = test system: T4-2; assay: as above; format: cell-based, human
Description: as §2, §3, §4, §5, §6

[9] = test system: MCF-10A; assay: as above; format: cell-based, human; details: Table 1, HA probe binding/uptake
Description: as §2, §3, §4, §5, §6

[10] = test system: S1; assay: as above; format: cell-based, human; details: Table 1; SI (S1); HA probe binding/uptake
Description: as §2, §3, §4, §5, §6

[11] = data obtained from Hyal Corporation, cited from earlier work
[12] = Table 1, HA probe binding/uptake

- HA binding [5, 12]: Very high
- HA binding level ([5]; Table 6): HA^4+
- HA binding [6]: Low
- HA binding [7, 12]: Low
- HA binding level ([7]; Table 6): HA^+
- HA binding [8, 12]: High
- HA binding level ([8]; Table 6): HA^2+
- HA binding [9]: Medium
- HA binding [10]: Medium
Substance: hyaluronan [HA]
- extravasation efficiency of tumor cells exposed to HA vs untreated cells [1]: twice
- targeting of HA-based probes to injured tissue [2]: selective targeting
- targeting of HA-based probes to tumor tissue [3]: selective targeting
- effect on signal of HA probe uptake [4]: reduced
- tolerability of HA injected I.V. ([11]; I.V. 1-12 mg/kg): well tolerated
- T½ from HA serum levels ([11]; I.V., 1.5 mg/kg dose): 12 h

Reference: patent US20130157285A1, “IDENTIFICATION OF INVASIVE AND SLOW-GROWING TUMORIGENIC CELL SUBSETS IN TUMORS” (The Regents of the University of California, priority 2011, published 2013)
